According to patent US10533018B2, “Antimicrobial prochelators to target drug-resistant bacteria and methods of making and using the same” (Duke University, priority 2015, dated 2020):
Read-outs that look alike come from different tables or passages of the source.

Experiments:
7 bacterial strains = experiment: Broth microdilution, summary across strains tested; format: cell-based
Experimental: Cultures were incubated on LB (Lennox, Sigma) agar at 37° C. in ambient atmospheric composition. Before beginning an experiment, a single bacterial colony grown on LB agar was resuspended in 2 mL LB broth and incubated overnight to form a turbid cell suspension. The overnight culture was diluted 1:100 in LB and used immediately as the working culture. To assess the antibacterial activity of compounds, the working bacterial culture was aliquoted in a clear, flat-bottomed, 96-well polystyrene plate (Costar) and the compound of interest was added in 2-fold serial dilution from 500 to 1 μM. Plates were covered with a breathable sealing film (Aeroseal, Genesee Scientific) and incubated at 37° C. in ambient atmospheric composition with shaking at 200 rpm. Optical density at 600 nm was recorded after 4 h and 20 h for each well using a standard OD600 protocol with LB serving as the blank. The resulting dose-response curves were fit to a nonlinear regression in GraphPad Prism Version 6 to calculate the IC50 of DB4-51 in each strain.

+Bla K-12 E. coli = format: cell-based, Escherichia coli; settings: 1 h, ICP-MS; for increase in cell-associated copper over the CuCl2 control: 10 μM compound + 10 μM supplemental CuCl2; for changes in cell-associated copper, iron, or zinc vs untreated control: 2.5-10 μM compound alone
Experimental: PT is recognized as an ionophore that shuttles metals across cell membranes and thereby disrupts cellular metal homeostasis. […] To test this hypothesis, inductively-coupled plasma mass spectrometry (ICP-MS) was used to measure the concentration of cell-associated copper, iron, and zinc for +Bla K-12 E. coli grown under a variety of conditions. Untreated E. coli grown in LB media were compared to those incubated for one hour in LB containing 0, 2.5, 5, or 10 μM DB4-51 or PT with and without 10 μM supplemental CuCl2. The concentrations of cell-associated metals in +Bla E. coli grown in these conditions are reported as a ratio against bacterial growth as measured by the OD600 reading at the time of sampling.
FIG. 6: Cellular metal concentrations of +Bla K-12 E. coli. Cultures of +Bla K-12 E. coli were incubated for 1 h in LB media, LB containing no treatment, 10 μM added CuCl2, and DB4-51 (top) or PT (bottom) at indicated concentrations in the absence or presence of 10 μM CuCl2. Metal contents of cell pellets were analysed via ICP-MS and reported as a function of OD600.

[1] = system: CCD-19Lu human lung fibroblast cells
Experimental: (§3) CellTox Green LDH Cytotoxicity Detection Kit was purchased from Promega. Cell lines were purchased from the ATCC. All work was performed in a laminar-flow hood using sterile techniques. […] After splitting and counting, black, clear bottom 96-well plates were seeded at a density of 15,000 cells/well and incubated overnight at 37° C. in a fully humidified atmosphere containing 5% CO2. […] Untreated cells served as the negative control while wells containing untreated cells incubated with 1% Triton X-100 served as the positive control.
(§4) Using a cytotoxicity assay, the viability of mammalian cells was monitored as a function of their membrane integrity.

[2] = system: HepG2 human liver epithelial cells
Experimental: as §3, §4

[3] = system: Type III β-lactamase from Enterobacter cloacae; experiment: LC-MS conversion of prochelator by β-lactamase; format: biochemical
Experimental: (§1) A commercially available β-lactamase (type III from Enterobacter cloacae, Sigma Aldrich) was used to verify the specificity of compound DB4-51 activation. Aqueous samples of the prochelator with and without β-lactamase were incubated at 25° C. and LC-MS was performed periodically to monitor the conversion. Percent conversion was calculated based upon the area under the LC-MS peak that corresponds to the mass of DB4-51.
LC-MS performed on samples containing 100 μM DB4-51, 10 μM Rofecoxib (as internal standard), and 0.5 units/mL β-lactamase in PBS. Samples were incubated at room temperature and analyzed via LC-MS at time 0. The mass spectrum corresponding to the chromatographic peak eluting at 14 min matches the expected m/z value for […]. After incubation, a new peak appears at 7 mins with corresponding m/z values consistent with expected masses of PT disulfide and the 2:1 PT complex with iron. The internal standard was Rofecoxib which elutes at 16 min. The concentrations of DB4-51, PT, and internal standard were calculated based on prepared calibration curves of the integrated area under the UV peak of each component.
(§2) The reaction products of the prochelator DB4-162 were analyzed by LC-MS. A sample of 100 μM DB4-162 and 10 μM Rofecoxib (internal standard) in PBS was divided into two LC-MS vials and to one was added 0.5 units/mL β-lactamase. After incubating at room temperature, the samples were run on the LC-MS. Integrating the area under the peak of the UV-trace gives a measure of the concentration of that species. By serial dilution, a calibration curve was constructed in order to quantify the concentration of DB4-162 present in solution. The mass spectrum confirms that the prochelator, with a molecular weight of 477.1 g/mol, elutes at 14.5 minutes (FIG. 10).

[4] = Stability in aqueous media / PBS (UV-Vis, LC-MS); format: physicochemical
Experimental: as §1
The results from the growth inhibition assays support our hypothesis that β-lactamase-producing bacteria activate DB4-51 to release PT as the active agent. […] The UV-Vis absorbance spectra of DB4-51 and PT in PBS buffer are clearly distinct, with DB4-51 showing a shoulder at 264 nm and a broad absorption peak centered at 315 nm.
In order to monitor the stability of DB4-162, the absorbance spectrum was recorded in PBS. The sample was incubated at 37° C. and the absorbance spectrum was recorded periodically. […] Additionally, the concentration of the prochelator in solution was monitored by LC-MS. A calibration curve was prepared after a serial dilution of DB4-162 was analyzed on the instrument and the area under the broad absorbance band at 260-300 nm that correlates with the prochelator was integrated. This curve was then used to calculate the concentration of DB4-162 present in solution after incubating in PBS at 37° C. The sample was analyzed by LC-MS after 0, 24, and 72 hours. After incubating in PBS for 24 hours more than 85% of the original signal was still observed by LC-MS. However, after 72 hours, it was calculated that approximately 60% of DB4-162 was still present in solution. Given the lack of degradation products in the mass spectrum and the absence of any new absorbance peaks it is possible that aggregation of the prochelator over time is the cause of the observed loss of signal. Together, the UV-Vis and LC-MS data support the overall stability of DB4-162 in aqueous conditions. By comparison, the half-life of most β-lactam antibiotics in vivo is a few hours.[44, 45]
as §2

E. coli = format: cell-based; settings: checkerboard, LB, OD600
Excerpt: Further evidence for the influence of bioavailable copper on the IC50 of DB4-51 was obtained by using a checkerboard assay. […] Serial dilutions of DB4-51 in LB were arrayed against dilutions of chelator (BCS and EDTA). The antagonism exists between our prochelator, DB4-51, and the strong, extracellular chelators BCS and EDTA. […] However, at lower concentrations, EDTA works antagonistically with DB4-51 by restoring bacterial growth. This trend further underscores the influence that copper and potentially other metals have on the growth inhibitory activity of DB4-51.

[5] = concentrations below 500 μM, 24 hour

[O-][n+]1ccccc1S [PT, 2-mercaptopyridine N-oxide]
IC50 (7 bacterial strains; 500 μM BCS, depending on strain, read-out: IC50 across strains under Cu limiting conditions): 6 to 20 µM
IC50 (7 bacterial strains; LB broth, span over 7 strains, read-out: IC50 across all strains tested): 2 to 11 µM
increase in cell-associated copper over the CuCl2 control (+Bla K-12 E. coli): 30 fold
changes in cell-associated copper, iron, or zinc vs untreated control (+Bla K-12 E. coli): no significant changes
cell death [1, 5]: ≤ 50%
cell death [2, 5]: ≤ 50%

O=C(Cc1ccccc1)N[C@@H]1C(=O)N2C(C(=O)O)=C(CSc3cccc[n+]3[O-])CS[C@H]12 [DB4-51, 2-((((6R,7R)-2-carboxy-8-oxo-7-(2-phenylacetamido)-5-thia-1-azabicyclo[4.2.0]oct-2-en-3-yl)methyl)thio)pyridine 1-oxide]
IC50 of DB4-51 relative to that of PT (7 bacterial strains; most ampicillin-resistant strains tested): 2-5 fold
Percent conversion (LC-MS peak area) ([3]; 100 μM, 0.5 units/ml β-lactamase, pH 7.4 PBS, after 4 hours): ~80%
decrease of chromatographic peak area of prochelator ([3]; after 4 hours in the presence of β-lactamase): more than 80%
PT released from the prochelator (area under PT peak) ([3]; with β-lactamase, PT difficult to quantify): 50%
stability by LC-MS ([4]; PBS, 72 hours at 37° C.): no signs of degradation
absorbance spectrum in PBS ([4]; PBS, after 19 hours): remains unchanged
Percent conversion in the absence of the enzyme ([4]; aqueous, 25° C., after 48 hours): ≤ 5%
increase in cell-associated copper over the CuCl2 control (+Bla K-12 E. coli): slight but statistically insignificant increase
changes in cell-associated copper, iron, or zinc vs untreated control (+Bla K-12 E. coli): no significant changes
interaction with extracellular chelators BCS and EDTA (E. coli): antagonism
LD50 ([1]; 24 h): > 500 µM
cytotoxicity ([1]; below 250 μM, 24 h): non-toxic
LD50 ([2]; 24 h): > 500 µM
cell death ([2]; at 500 μM, 24 h): more than 50%
cytotoxicity ([2]; below 250 μM, 24 h): non-toxic

Cc1csc(=S)n1OCC1=C(C(=O)O)N2C(=O)[C@@H](NC(=O)Cc3ccccc3)[C@H]2SC1 [DB4-162, (6R,7R)-3-(((4-methyl-2-thioxothiazol-3(2H)-yl)oxy)methyl)-8-oxo-7-(2-phenylacetamido)-5-thia-1-azabicyclo[4.2.0]oct-2-ene-2-carboxylic acid]
reduction of prochelator peak ([3]; 100 μM, 0.5 units/mL β-lactamase, PBS, 4 hours): more than 95%
stability without the enzyme (LC-MS) [4]: appears stable
original signal still observed by LC-MS ([4]; PBS, 37° C., 24 hours): more than 85%
prochelator still present in solution (LC-MS) ([4]; PBS, 37° C., 72 hours): approximately 60%
absorbance spectrum change ([4]; PBS, 37° C., after 72 hours): only very small spectral changes
